# Data from PubChem BioAssay AID179 (DTP/NCI, 2004).
# Several values for one entry are separate records, joined by “and”; a condition that tells them apart may be missing. Equal entries are not always repeated. Activity calls are given as the source filed them.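 Rule for the calls: active = compounds giving half or more protection of infected cells from virus-caused growth loss, again on retest; inactive = the rest.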 Where a SMILES comes first, the peptide text is derived from it. The star is where a group is joined. Cbz = O=C(OCc1ccccc1)*
# System: CEM cells HIV-1 protection, formazan growth assay
# Experiment: NCI AIDS Antiviral Assay
# Settings: for IC50: measured here: growth of uninfected CEM cells
# In short: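 Screen of anti-HIV-1 activity in human CEM cells using a formazan-based growth measurement at five drug concentrations. Hits with 50% or greater protection were repeated, and confirmation required reproducible complete protection.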
Compound,outcome,EC50,IC50
CN(C)Cc1cc(C23CC4CC(CC(C4)C2)C3)cc(-c2ccccc2)c1O,inactive,,
CCOC(=O)c1nc2ccccc2nc1Oc1ccc(F)cc1,,> 200 µM,> 200 µM
COc1ccc(N2C(=O)CSC2c2c[nH]c3ccccc23)cc1 (stereo unspecified),,> 22.4 µM,> 22.4 µM
C=CCN=C1N=C(CC(=O)OCC)CS1,inactive,,
CCCCc1ccc(C(=O)O)nc1,inactive,,
Cc1ccc(NC(=S)N/C=C(\c2ccccc2)S(=O)Cc2ccccc2)c(C)c1 (stereo unspecified),,> 200 µM,93.3 µM
Cc1cc(C(=O)Nc2ccc(NC3=NCCN3)cc2)c(C)cc1C(=O)Nc1ccc(NC2=NCCN2)cc1,,> 200 µM,20.4 µM
Oc1c(C2=N[C@H]3CCCC[C@@H]3N2)ccc2ccccc12,,> 200 µM,> 200 µM
CSc1n[nH]c(NC(=O)c2ccccc2Cl)n1,,> 132 µM,> 132 µM
O=c1ccn(C2OC(CN(O)CCC3C(CO)OC(n4ccc(=O)[nH]c4=O)C3O)C(O)C2O)c(=O)[nH]1 (stereo unspecified),,> 200 µM,126 µM
O=S(=O)(O)c1cc(N=[N+]([O-])c2cc(S(=O)(=O)O)c3ccccc3c2)cc2ccccc12,,> 200 µM,93.3 µM
Cc1ccc(S(=O)(=O)N=NC=C2c3ccccc3N(O)c3ccccc32)cc1,inactive,,
O=C1C[C@@H]2C(COC(=O)c3ccccc3)N(OCc3ccccc3)C[C@@H]2O1 (stereo partly specified),,> 97.7 µM,> 97.7 µM
COc1ccc(C(=C(Cl)c2ccccc2)c2ccc(OC)cc2)cc1,,> 200 µM,47.9 µM
C/C(=C1/CCCC2(N=NCC2c2ccccc2)C1=O)c1ccccc1 (stereo unspecified),,> 8.32 µM,> 8.32 µM
O=Cc1ccc(C(F)(F)F)cc1.[C-]#[O+].[C-]#[O+].[C-]#[O+].[Cr],,> 20 µM,3.98 µM
C=C(C)[C@@H]1CCC2=C[C@@H](OC2=O)[C@@H](C(=C)C)C2=CC(C(=O)O)=C(C1)O2,,> 200 µM,91.2 µM
CCOC(=O)C(C)NC(=O)C(C)NC(=O)C(C)NC(=O)C(C)NC(=O)C(C)NC(=O)C(C)NC(=O)C(C)NC(=O)OCc1ccccc1 (stereo unspecified) (Cbz-AAAAAAA-OEt; configuration not given here),,> 200 µM,> 200 µM
O=C(CNc1ccc(Cl)cc1Cl)NC1C=Cc2ccc(S(=O)(=O)Nc3ccc(Cl)cc3Cl)cc2C1=O (stereo unspecified),,> 200 µM,> 200 µM
CC(=O)Nc1ccc(-c2nnc(SCC(=O)Nc3ccccc3)o2)cc1,,> 37.2 µM,20.9 µM
O=C(NO)c1cccc(OCc2ccc(Br)cc2)c1,,> 200 µM,9.12 µM
CC(=O)OCC1OC(n2c(C)c(N=Nc3ccc(Cl)cc3)c(C)c(C#N)c2=S)C(OC(C)=O)C(OC(C)=O)C1OC(C)=O (stereo unspecified),,> 200 µM,> 200 µM

Compound,outcome,EC50,IC50
CC(=O)NNC(=S)N/C=C\c1nc2ccccc2[nH]c1=O,,> 200 µM,> 200 µM
CC1(Cl)C(=O)NC(=O)N([C@H]2C[C@H](O)[C@@H](CO)O2)C1N=[N+]=[N-] (stereo partly specified),,> 200 µM,> 200 µM
CC1(C)N([O-])[N+](=O)C1(C)Br (stereo unspecified),,> 200 µM,> 200 µM
CCN(CC)C(=S)S,,> 1450 µM,39.8 µM
CNc1c2cccc(C)c2nc2c(C(=O)NCCN(C)C)cccc12,,> 0.2 µM,0.0191 µM
CCn1c2ccccc2c2c(-c3ccccc3)cc3c(c21)C(=O)N(c1ccccc1)C3=O,,> 6.61 µM,> 6.61 µM
CC(Oc1ccc2cc(C(=O)c3ccccc3)c(=O)oc2c1)C(=O)O (stereo unspecified),inactive,,
CCOC(=O)C1=C(SC)SC(C(=O)OCC)C2C=C(C)C=CN12 (stereo unspecified),,> 102 µM,45.7 µM
CCC(C)C(NC(=O)C(N)CCCCN)C(=O)NC(CCC(=O)O)C(=O)NC(CO)C(=O)NC(C(=O)O)C(C)O (stereo unspecified) (H-KIEST-OH; configuration not given here),inactive,,
CN1CCCC(C(=O)O)(c2ccccc2)CC1 (stereo unspecified),inactive,,
COc1ccc(C2CC(=O)Oc3ccccc3O2)cc1 (stereo unspecified),,102 µM,151 µM
Cc1cc(C)nc(NC(=O)Nc2ccccc2)c1,,> 200 µM,> 200 µM
CCCNC(C#N)c1ccc(C(C#N)NCCC)cc1 (stereo unspecified),,> 200 µM,38.9 µM
OC(CCN1CCOCC1)c1ccc(Sc2ccccc2)cc1 (stereo unspecified),,> 200 µM,36.3 µM
O=C1CN(c2ccccc2)C(=O)CN1NCNN1CC(=O)N(c2ccccc2)CC1=O,,> 200 µM,> 200 µM
N#CCCC1C(C#N)C2CC1C1C3C=CC(C3)C21 (stereo unspecified),,> 200 µM,> 200 µM
Cc1cn(COCCCO)c(=O)[nH]c1=O,,> 200 µM,> 200 µM
COc1ccc(C(c2c(O)c3ccccc3oc2=O)c2c(O)c3ccccc3oc2=O)cc1,,> 200 µM,87.1 µM
CCc1cc(-c2ccc(OC)cc2)c(C#N)c(=S)n1C1OC(COC(C)=O)C(OC(C)=O)C(OC(C)=O)C1OC(C)=O (stereo unspecified),,> 200 µM,14.5 µM and 12.3 µM
C=C1C(=O)OC2/C=C(\C)CC/C=C(\C)CC(OC(=O)/C(=C/CO)CO)[C@@H]12 (stereo partly specified),,> 200 µM,0.933 µM
NNC(=O)CCC(=O)Nc1cc(Cl)c(Cl)cc1Cl,,> 115 µM,> 115 µM
O=C1OC(c2ccccc2)=N/C1=C\c1cccc2ccccc12,,> 120 µM,> 120 µM

Compound,outcome,EC50,IC50
CC1(C)CC(C)(C)CC(O)(C2(O)CC(C)(C)CC(C)(C)C2)C1,,> 8.71 µM,> 8.71 µM
COC(=O)c1ccc2c(c1)CC1(C2)Cc2cc3c(cc2C1=O)CCC3 (stereo unspecified),,> 200 µM,20 µM
O=c1ccn(C2CCC3(CO)CC23)c(=O)[nH]1 (stereo unspecified),,> 50.1 µM,> 50.1 µM
CC(C)(C)C1CCC2c3c([nH]c4ccccc34)C3C(=O)N(c4ccccc4[N+](=O)[O-])C(=O)C3C2C1 (stereo unspecified),,> 200 µM,36.3 µM
COC(=O)C1(O)CC(=O)CCC1c1ccc(OC)cc1 (stereo unspecified),,> 275 µM,> 275 µM
Cc1ncc([N+](=O)[O-])n1CCNC(=O)CCn1ccnc1[N+](=O)[O-],,> 200 µM,> 200 µM
CC1CCC(C(C)C)C(OC2(c3ccccc3)OC(=O)c3ccccc32)C1 (stereo unspecified),inactive,,
CCCCCCCCCCCC(=O)OCC1OC(n2cc(F)c(=O)[nH]c2=O)C(NC(=O)OCc2ccccc2)C(O)C1O (stereo unspecified),,> 30.9 µM,> 30.9 µM
O=C1SC(c2ccccc2)(c2ccccc2)c2cscc21,,> 61.7 µM,> 61.7 µM
CC1SC2=NC3=C(c4ccccc4C3=O)C(c3ccc(F)cc3)N2C1=O (stereo unspecified),,> 37.2 µM,> 37.2 µM
O=C1/C(=C/c2ccccc2)CN(C(=O)OCC(Cl)(Cl)Cl)C/C1=C\c1ccccc1,inactive,,
CC(C)(C)OC(=O)NC1CCCC1C(O)(C1=CCCC1)C1=CCCC1 (stereo unspecified),,> 200 µM,120 µM
C/C(=N\NC(=O)CC(=O)N(C(=O)c1ccccc1Cl)c1ccc(C)cc1)c1ccc(Cl)cc1,,> 14.1 µM,> 14.1 µM
OCC1CC(F)C(n2cnc3c(Br)ncnc32)O1 (stereo unspecified),,> 158 µM,27.5 µM
CC(=O)OC(C)CC[P+](c1ccccc1)(c1ccccc1)c1ccccc1 (stereo unspecified),,> 200 µM,75.9 µM
CC(=O)OC1C2CCC1C1C2C2(Cl)C(Cl)=C(Cl)C1(Cl)C2(Cl)Cl (stereo unspecified),inactive,,
COc1ccc(/C=C2\Cc3ccccc3C2=O)cc1,,> 20 µM,> 20 µM
CCOc1cnn(-c2ccccc2)c(=O)c1Cl,,> 1000 µM,437 µM
Nc1ccc(/C=C/c2cccc3cccnc23)cc1,,0.0631 µM,> 200 µM
COc1csc([C@H]2CCC3[C@@H]4CC=C5C[C@@H](OC(=O)CCC(=O)O)CC[C@]5(C)C4CC[C@@]32C)n1 (stereo partly specified),,> 51.3 µM,32.4 µM
CCCCCCCCCCCCCCCCCC(CCCCCCCCCCCCCCCCC)OP(=O)(O)O,inactive,,
Cc1nc2c(nc1Cl)nc(Oc1ccc(Cl)cc1)c1ccccc12,,> 28.2 µM,> 28.2 µM

Compound,outcome,EC50,IC50
N#CC(c1ccccc1)N(CCc1ccccc1)C(=O)c1ccccc1 (stereo unspecified),,> 126 µM,> 126 µM
C1=CC2CC1C1C(=C3Sc4ccccc4S3)c3nccnc3C(=C3Sc4ccccc4S3)C21 (stereo unspecified),,> 14.5 µM,> 14.5 µM
N#CCCN(CCC#N)c1ccc(/C=C2\N=C(c3ccccc3)N(c3ccc(Cl)cc3)C2=O)cc1,,> 200 µM,> 200 µM
Cc1cc2c(C)nn(Cc3ccccc3)c2c(C(N)=O)c1C,inactive,,
C[N+]1(C)CC2C3C=C(I)C(C3)C2C1 (stereo unspecified),,> 214 µM,> 214 µM
Nc1nc2cc(CNc3ccc(C(=O)NC(CCC(=O)O)C(=O)O)cc3)ccc2nc1-c1ccccc1 (stereo unspecified),,> 200 µM,12.3 µM
O=C(/C=C(\O)C(=O)O)/C=C(\O)c1ccc(Cl)cc1,,> 69.2 µM,> 69.2 µM
CC(C)=CCCc1c(C)ccc2c1C(=O)C(=O)C(C(C)C)=C2,,> 60.3 µM,4.47 µM
CN(C)CCCN=C(N)N,,> 200 µM,> 200 µM
CC1=CN2C(c3ccccc3)=NON(c3ccc(C)cn3)C2C=C1 (stereo unspecified),,> 21.4 µM,> 21.4 µM
CC1CCC(=O)NCCCCC(=O)N1 (stereo unspecified),,> 36.3 µM,> 36.3 µM
CC(=O)N1C/C(=C\c2ccccc2)C(=O)/C(=C/c2ccccc2)C1,inactive,,
CC(=O)Oc1ccc2c(c1)oc1c3ccc(OC(C)=O)cc3n(C)c(=O)c21,,> 200 µM,107 µM
CN(C)c1cccc2c1C(=O)C=CC21c2ccc(N(C)C)c3c(N(C)C)ccc(c23)C(c2ccccc2)C1c1ccccc1 (stereo unspecified),,> 100 µM,7.08 µM
COC(=O)C(=O)C(C(=O)C(=O)Nc1nc(=S)[nH][nH]1)c1nc2ccc([N+](=O)[O-])cc2[nH]c1=O (stereo unspecified),,> 282 µM,> 282 µM
c1ccc(NCn2cnc3ccccc32)cc1,inactive,,
Cc1ccc2c(c1)Nc1ccccc1C(=O)N2,,> 200 µM,> 200 µM
O=c1[nH]c2nc[nH]c2c(=O)n1C1CCCCC1,,> 200 µM,> 200 µM
CCOP(=O)(OCC)C(=Cc1ccccc1)P(=O)(OCC)OCC,,> 661 µM,398 µM
NC(=O)c1oc([N+](=O)[O-])c(-c2ccccc2)c1-c1ccccc1,,> 200 µM,15.1 µM
O=C1CN(CCCO)CC(=O)N2Cc3ccccc3CN12,,> 200 µM,> 200 µM
O=C1C(=O)N(C(=O)c2ccc(Cl)c(Cl)c2)c2ccc(Cl)cc21,inactive,,
